Data as given in article doi:10.1101/2025.07.03.663083, “TMC1 and TMC2 are cholesterol-dependent scramblases that regulate membrane homeostasis in auditory hair cells” (bioRxiv, 2025).

Legend:
Test in all cases: proteoliposome scramblase assay, dithionite and BSA back-extraction of NBD fluorescence
Format in all cases: functional
MuTMC2 (truncated) = biological target: T1, MuTMC2 (truncated) (Melopsittacus undulatus, UniProt Z9DQS5U608); settings: labelled compound; POPC/POPE/POPS […] with […] cholesterol, pH […] °C; lipid translocation, no headgroup specificity
T1 construct: transmembrane core without N- and C-terminal domains; His-GFP tag kept; Sf9 (baculovirus); purified in DDM/CHS, reconstituted in liposomes
T1 sequence (Z9DQS5U608 211-807): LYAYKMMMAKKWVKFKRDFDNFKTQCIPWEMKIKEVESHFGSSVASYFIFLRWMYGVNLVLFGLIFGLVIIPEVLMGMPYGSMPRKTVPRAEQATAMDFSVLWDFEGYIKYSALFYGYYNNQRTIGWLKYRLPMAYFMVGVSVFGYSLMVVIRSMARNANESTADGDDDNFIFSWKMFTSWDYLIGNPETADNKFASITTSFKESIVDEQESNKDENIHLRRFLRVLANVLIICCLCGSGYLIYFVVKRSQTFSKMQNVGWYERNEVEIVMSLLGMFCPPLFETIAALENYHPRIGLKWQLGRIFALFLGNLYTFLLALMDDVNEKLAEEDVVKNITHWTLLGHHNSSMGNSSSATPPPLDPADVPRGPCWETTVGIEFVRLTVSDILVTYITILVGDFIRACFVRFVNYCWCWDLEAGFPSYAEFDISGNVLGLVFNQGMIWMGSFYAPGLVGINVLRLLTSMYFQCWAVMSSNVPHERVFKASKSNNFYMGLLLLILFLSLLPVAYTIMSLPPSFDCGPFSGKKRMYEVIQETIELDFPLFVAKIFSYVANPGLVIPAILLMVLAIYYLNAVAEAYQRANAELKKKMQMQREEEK

FL MuTMC2 = biological target: T2, FL MuTMC2 (Melopsittacus undulatus, UniProt Z9DQS5U608); settings: labelled compound; POPC/POPE/POPS […] with […] cholesterol, pH […] °C; lipid translocation, no headgroup specificity
T2 construct: full length, 1-928; His-GFP tag; Sf9 (baculovirus); reconstituted in liposomes
T2 sequence (Z9DQS5U608 1-928): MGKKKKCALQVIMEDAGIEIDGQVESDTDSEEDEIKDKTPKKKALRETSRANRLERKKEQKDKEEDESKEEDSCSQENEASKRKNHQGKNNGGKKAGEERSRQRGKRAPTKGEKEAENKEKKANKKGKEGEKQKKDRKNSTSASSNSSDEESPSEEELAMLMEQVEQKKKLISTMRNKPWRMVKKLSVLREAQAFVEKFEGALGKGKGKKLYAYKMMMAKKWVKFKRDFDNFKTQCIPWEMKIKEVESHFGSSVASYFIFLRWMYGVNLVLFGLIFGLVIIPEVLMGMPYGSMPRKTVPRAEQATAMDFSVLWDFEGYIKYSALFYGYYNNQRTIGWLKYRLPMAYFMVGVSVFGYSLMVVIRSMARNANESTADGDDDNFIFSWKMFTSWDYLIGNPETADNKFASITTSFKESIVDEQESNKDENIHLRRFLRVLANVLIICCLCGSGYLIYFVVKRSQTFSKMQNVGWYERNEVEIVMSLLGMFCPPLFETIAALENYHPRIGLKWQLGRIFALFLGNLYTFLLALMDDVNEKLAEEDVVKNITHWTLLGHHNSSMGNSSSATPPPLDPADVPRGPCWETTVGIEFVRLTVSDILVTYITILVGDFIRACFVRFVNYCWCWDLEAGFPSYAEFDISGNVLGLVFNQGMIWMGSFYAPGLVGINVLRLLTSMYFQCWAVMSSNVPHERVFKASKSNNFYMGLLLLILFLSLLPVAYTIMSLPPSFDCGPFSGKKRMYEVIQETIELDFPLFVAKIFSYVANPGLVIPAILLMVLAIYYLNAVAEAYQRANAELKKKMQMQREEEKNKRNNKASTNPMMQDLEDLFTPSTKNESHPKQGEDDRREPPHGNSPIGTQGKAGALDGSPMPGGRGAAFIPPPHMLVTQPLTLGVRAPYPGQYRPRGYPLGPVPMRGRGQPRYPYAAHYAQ

FL CmTMC1 = biological target: T3, FL CmTMC1 (Chelonia mydas, UniProt Z9P3M8BL59); settings: labelled compound; POPC/POPE/POPS 2:1:1 with 10% cholesterol, pH 7.4, 25 °C; lipid translocation, no headgroup specificity
T3 construct: full length, 1-955; His-GFP tag; Sf9 (baculovirus); reconstituted in liposomes
T3 sequence (Z9P3M8BL59 1-955): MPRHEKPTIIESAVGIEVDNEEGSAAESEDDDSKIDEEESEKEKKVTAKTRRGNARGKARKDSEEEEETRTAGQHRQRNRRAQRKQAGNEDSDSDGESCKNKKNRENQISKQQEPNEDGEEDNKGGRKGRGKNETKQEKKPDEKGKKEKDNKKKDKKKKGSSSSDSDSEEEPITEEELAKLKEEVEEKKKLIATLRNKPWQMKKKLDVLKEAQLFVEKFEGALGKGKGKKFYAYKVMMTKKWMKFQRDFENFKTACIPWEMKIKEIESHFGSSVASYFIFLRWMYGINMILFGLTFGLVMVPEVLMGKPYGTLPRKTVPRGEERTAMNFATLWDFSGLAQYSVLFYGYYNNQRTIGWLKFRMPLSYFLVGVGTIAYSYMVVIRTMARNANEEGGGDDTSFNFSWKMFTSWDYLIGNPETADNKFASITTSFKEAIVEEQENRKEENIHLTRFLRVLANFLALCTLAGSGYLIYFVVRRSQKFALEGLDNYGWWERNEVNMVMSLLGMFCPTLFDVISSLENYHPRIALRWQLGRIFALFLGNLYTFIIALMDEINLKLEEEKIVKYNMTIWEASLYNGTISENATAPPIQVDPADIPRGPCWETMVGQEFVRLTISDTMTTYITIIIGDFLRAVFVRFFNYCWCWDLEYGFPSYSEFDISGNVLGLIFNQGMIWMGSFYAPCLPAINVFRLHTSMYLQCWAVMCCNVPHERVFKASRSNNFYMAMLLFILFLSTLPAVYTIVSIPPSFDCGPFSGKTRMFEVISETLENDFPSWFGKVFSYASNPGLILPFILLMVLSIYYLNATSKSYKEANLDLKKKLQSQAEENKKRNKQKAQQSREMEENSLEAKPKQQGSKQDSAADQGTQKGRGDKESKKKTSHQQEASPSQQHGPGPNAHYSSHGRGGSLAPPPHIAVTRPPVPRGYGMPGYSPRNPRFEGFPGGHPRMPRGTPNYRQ

CmTMC1 (truncated) = biological target: T4, CmTMC1 (truncated) (Chelonia mydas, UniProt Z9P3M8BL59); settings: labelled compound; POPC/POPE/POPS 2:1:1 with 10% cholesterol, pH 7.4, 25 °C; lipid translocation, no headgroup specificity
T4 construct: transmembrane core without N- and C-terminal domains; His-GFP tag kept; Sf9 (baculovirus); purified in DDM/CHS, reconstituted in liposomes
T4 sequence (Z9P3M8BL59 230-828): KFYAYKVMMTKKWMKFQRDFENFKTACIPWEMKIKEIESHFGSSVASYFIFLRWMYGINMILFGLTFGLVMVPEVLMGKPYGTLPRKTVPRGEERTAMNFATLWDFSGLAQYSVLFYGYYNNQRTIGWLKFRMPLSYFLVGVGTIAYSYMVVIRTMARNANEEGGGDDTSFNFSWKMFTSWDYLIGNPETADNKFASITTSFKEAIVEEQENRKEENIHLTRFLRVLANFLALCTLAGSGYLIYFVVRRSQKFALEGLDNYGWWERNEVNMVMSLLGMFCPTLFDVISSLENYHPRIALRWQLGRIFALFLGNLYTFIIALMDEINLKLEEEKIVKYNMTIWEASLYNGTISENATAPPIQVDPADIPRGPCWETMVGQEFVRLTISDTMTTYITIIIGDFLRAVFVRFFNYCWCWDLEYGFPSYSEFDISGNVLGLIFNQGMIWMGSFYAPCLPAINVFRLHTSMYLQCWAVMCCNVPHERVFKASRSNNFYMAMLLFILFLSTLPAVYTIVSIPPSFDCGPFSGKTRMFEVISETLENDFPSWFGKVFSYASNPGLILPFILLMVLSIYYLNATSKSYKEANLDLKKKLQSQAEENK

CCCCCCCCCCCCCC(=O)OC[C@H](COP(=O)(O)OCCN)OC(=O)CCCCCNc1ccc([N+](=O)[O-])c2nonc12 [NBD-PE, 1-myristoyl-2-sn-glycero-3-phosphoethanolamine]
proteoliposome scramblase assay, dithionite and BSA back-extraction of NBD fluor (MuTMC2 (truncated)): due to scrambling of the fluorescent NBD-PE lipids by the TMC proteins | proteoliposome scramblase assay, dithionite and BSA back-extraction of NBD fluor (FL MuTMC2): no differences in PLS activity between truncated and FL CmTMC1 and MuTMC2 | proteoliposome scramblase assay, dithionite and BSA back-extraction of NBD fluor (FL CmTMC1): no differences in PLS activity between truncated and FL CmTMC1 and MuTMC2 | proteoliposome scramblase assay, dithionite and BSA back-extraction of NBD fluor (CmTMC1 (truncated)): due to scrambling of the fluorescent NBD-PE lipids by the TMC proteins
